{"source": "patent US8692014B2", "about": "“Acid addition salts of 5-aminolevulinic acid or its derivatives” (Photocure ASA, priority 2004, dated 2014)", "key": {"mouse skin [1]": {"test_system": "mouse skin", "assay": "Skin fluorescence after topical application of cream formulations to nude mice (emission 550-750 nm)", "type": "in vivo, Female Balb/c athymic nude mice", "details": "in words; for skin fluorescence compared to the hydrochloride salt / initial fluorescence build-up compared with the hydrochloride salt / occurrence of maximum fluorescence compared with the hydrochloride salt: topical cream 0.5 mmol/10 g; for skin fluorescence compared to the hydrochloride salt: FIG. 3 and FIG. 4; for initial fluorescence build-up compared with the hydrochloride salt / occurrence of maximum fluorescence compared with the hydrochloride salt: FIG. 2", "procedure": "Different salts of 5-amino-4-oxopentanoic acid or of its esters were formulated in Unguentum Merck for dermal studies. All cream formulations contained 0.5 mmol of substance per 10 g cream to ensure the same molar concentration (assuming that 10 g cream equals 10 ml, the approx. molar concentration is 0.5 mmol/10 ml or 50 mM). Preparation of the formulations is outlined in Table 1 below.\n(§1) Method: Female Balb/c athymic nude mice, weighing about 22 g, obtained from the Department of Laboratory Animals, The Norwegian Radium Hospital, Oslo, Norway, were used in the study. Each group consisted of three mice.\n(§2) Each mouse received 0.05-0.1 g of formulation (see Example 31) topically applied at the right flank of the body, evenly distributed and covered with a dressing (Opsite Flexigrid; Smith and Nephew Medical Ltd., Hull, England).\n(§3) The fiber point measuring device used consisted of a bundle of optical fibers connected to a spectrofluorimeter which produced the excitation light of 407 nm. The excitation light, which is capable of penetrating 0.1-0.5 mm into the tissue, was led through half of the fibers to the mouse skin. The resulting emission fluorescence spectrum (550-750) nm was collected and led through the remaining fibers into a photomultiplier for quantification. The fluorescence spectrum from the skin was measured at 0, 2, 4, 6, 8, 10, 12 and 24 hours after administration and plotted against time."}, "mouse skin [2]": {"test_system": "mouse skin", "assay": "Skin fluorescence after topical application of cream formulations to nude mice, measured at 636 nm", "type": "in vivo, Female Balb/c athymic nude mice", "details": "topical cream 0.5 mmol/10 g, fluorescence at 636 nm, in words; for induction of skin fluorescence compared with the hydrochloride salt: FIG. 6 and FIG. 7; for occurrence of maximum fluorescence compared with the hydrochloride salt: FIG. 7", "text": "as §1, §2, §3\nDifferent salts of 5-amino-4-oxopentanoic acid or of its benzylester were formulated in Unguentum Merck for dermal studies. All cream formulations contained 0.5 mmol substance per 10 g cream to assure the same molar concentration. Corrections were made in the case of the 2:1 salts so that the molar concentration of 5-amino-4-oxopentanoic acid or the corresponding ester corresponded to 0.5 mmol/10 g cream. Assuming that 10 g cream equals 10 ml, the approx. molar concentration is 0.5 mmol/10 ml=50 mM. Preparation of the formulations is outlined in Table 2 below.\nPreparation of the Formulations is Described in Example 36. The same experimental system as in Example 32 was used, except that the skin fluorescence was measured at 636 nm rather than at 550-750 nm.\nPreparation of the Formulations is Described in Example 36. The same experimental system as in Example 37 was used."}, "[3]": {"assay": "Hygroscopicity: 2 mg samples kept at ambient temperature at ambient or 100 humidity", "type": "physicochemical", "details": "for deliquescence on storage: ambient temperature and 100 humidity; for change of sample on storage: ambient temperature and ambient humidity for 4 days", "procedure": "Samples (2 mg) of the hydrochloride, methanesulfonate, and toluenesulfonate of hexyl 5-amino-4-oxopentanoate were kept at ambient temperature and ambient humidity for 4 days.\nSamples (2 mg) of the hydrochloride, methanesulfonate, and toluenesulfonate of hexyl 5-amino-4-oxopentanoate were kept at ambient temperature and 100 humidity."}, "[4]": {"assay": "Hygroscopicity: water uptake and onset of deliquescence in closed chamber at 75-84% relative humidity", "type": "physicochemical", "details": "75-84% relative humidity over saturated ammonium sulfate solution, ca. 25° C.; for appearance / deliquescence during the test period / water uptake as monitored by weight: in words", "procedure": "(§4) Samples of methyl 5-amino-4-oxopentanoate hydrochloride, methanesulfonate, and toluenesulfonate were weighed and kept in 30 ml plastic cups in a closed chamber at 75-84% relative humidity over saturated ammonium sulfate solution at ambient temperature (ca. 25° C.). The samples were then weighed after different intervals of time to monitor water uptake. The appearance of the samples was also checked at the same time to determine the onset of deliquescence.\nas §4, with “5-amino-4-oxopentanoic acid hydrochloride” for “methyl 5-amino-4-oxopentanoate hydrochloride, methanesulfonate,”, “75-84” for “75-84%”\nas §4, with “hexyl” for “methyl”, “hydrochloride” for “hydrochloride, methanesulfonate,”"}}, "data": [{"molecule": "CS(=O)(=O)O.NCC(=O)CCC(=O)O", "note": "[5-amino-4-oxopentanoic acid methanesulfonate]", "values": [{"measurement": "maximal skin fluorescence compared with the HCl salt", "setting": "mouse skin [1]; topical cream 0.5 mmol/10 g (Unguentum Merck), excitation 407 nm, emission 550-750 nm, 0-24 h, FIG. 1", "value": "somewhat higher maximal skin fluorescence than the HCl salt"}]}, {"molecule": "NCC(=O)CCC(=O)OCc1ccccc1.O=[N+]([O-])O", "note": "[benzyl 5-amino-4-oxopentanoate nitrate, Benzyl 5-amino-4-oxopentanoate nitrate]", "values": [{"measurement": "induction of skin fluorescence compared with the hydrochloride salt", "setting": "mouse skin [2]", "value": "more effective in inducing skin fluorescence than the hydrochloride salt"}]}, {"molecule": "CCCCCCOC(=O)CCC(=O)CN.CS(=O)(=O)O", "note": "[hexyl 5-amino-4-oxopentanoate methanesulfonate]", "values": [{"measurement": "skin fluorescence compared to the hydrochloride salt", "setting": "mouse skin [1]; emission 550-750 nm", "value": "approx. the same skin fluorescence as the hydrochloride salt"}, {"measurement": "deliquescence on storage", "setting": "[3]", "value": "deliquesced after two days"}, {"measurement": "change of sample on storage", "setting": "[3]", "value": "No observable change"}, {"measurement": "appearance / deliquescence during the test period", "setting": "[4]", "value": "deliquescence did not occur"}, {"measurement": "water uptake as monitored by weight", "setting": "[4]", "value": "took up water to some extent"}]}, {"molecule": "hexyl 5-amino-4-oxopentanoate toluenesulfonate", "values": [{"measurement": "skin fluorescence compared to the hydrochloride salt", "setting": "mouse skin [1]; emission 550-750 nm", "value": "approx. the same skin fluorescence as the hydrochloride salt"}, {"measurement": "deliquescence on storage", "setting": "[3]", "value": "deliquesced after four days"}, {"measurement": "change of sample on storage", "setting": "[3]", "value": "No observable change"}, {"measurement": "appearance / deliquescence during the test period", "setting": "[4]", "value": "did not change appearance during the test period"}, {"measurement": "water uptake as monitored by weight", "setting": "[4]", "value": "did not pick up water"}]}, {"molecule": "Benzyl 5-amino-4-oxopentanoate sulfate (2:1)", "values": [{"measurement": "induction of skin fluorescence compared with the hydrochloride salt", "setting": "mouse skin [2]", "value": "poorer inducers of skin fluorescence than the corresponding hydrochloride salt"}, {"measurement": "occurrence of maximum fluorescence compared with the hydrochloride salt", "setting": "mouse skin [2]", "value": "occurred earlier"}]}, {"molecule": "COC(=O)CCC(=O)CN.Cl", "note": "[methyl 5-amino-4-oxopentanoate hydrochloride, reference compound]", "values": [{"measurement": "onset of deliquescence", "setting": "[4]", "value": 22, "unit": "h"}, {"measurement": "water uptake as monitored by weight", "setting": "[4]", "value": "took up water to a considerable extent"}]}, {"molecule": "5-Amino-4-oxopentanoic acid toluenesulfonate", "values": [{"measurement": "appearance / deliquescence during the test period", "setting": "[4]", "value": "did not change appearance during the test period"}, {"measurement": "water uptake as monitored by weight", "setting": "[4]", "value": "did not pick up water"}]}, {"molecule": "Benzyl 5-amino-4-oxopentanoate toluenesulfonate", "values": [{"measurement": "initial fluorescence build-up compared with the hydrochloride salt", "setting": "mouse skin [1]", "value": "occurred faster"}, {"measurement": "occurrence of maximum fluorescence compared with the hydrochloride salt", "setting": "mouse skin [1]", "value": "occurred faster"}]}, {"molecule": "NCC(=O)CCC(=O)OCc1ccccc1.O=P(O)(O)O", "note": "[benzyl 5-amino-4-oxopentanoate phosphate, Benzyl 5-amino-4-oxopentanoate phosphate]", "values": [{"measurement": "induction of skin fluorescence compared with the hydrochloride salt", "setting": "mouse skin [2]", "value": "poorer inducers of skin fluorescence than the corresponding hydrochloride salt"}, {"measurement": "occurrence of maximum fluorescence compared with the hydrochloride salt", "setting": "mouse skin [2]", "value": "occurred earlier"}]}, {"molecule": "COC(=O)CCC(=O)CN.CS(=O)(=O)O", "note": "[Methyl 5-amino-4-oxopentanoate methanesulfonate]", "values": [{"measurement": "skin fluorescence compared to the hydrochloride salt", "setting": "mouse skin [1]; emission 550-750 nm", "value": "a considerable increase in skin fluorescence as compared to the hydrochloride salt"}, {"measurement": "onset of deliquescence", "setting": "[4]", "value": 22, "unit": "h"}, {"measurement": "water uptake as monitored by weight", "setting": "[4]", "value": "took up water to a considerable extent"}]}, {"molecule": "CCCCCCOC(=O)CCC(=O)CN.Cl", "note": "[hexyl 5-amino-4-oxopentanoate hydrochloride, reference compound]", "values": [{"measurement": "deliquescence on storage", "setting": "[3]", "value": "deliquesced after standing overnight"}, {"measurement": "change of sample on storage", "setting": "[3]", "value": "No observable change"}, {"measurement": "onset of deliquescence", "setting": "[4]", "value": 5.0, "unit": "h"}, {"measurement": "water uptake as monitored by weight", "setting": "[4]", "value": "did not pick up water to a considerable extent"}]}, {"molecule": "CS(=O)(=O)O.NCC(=O)CCC(=O)OCc1ccccc1", "note": "[Benzyl 5-amino-4-oxopentanoate methanesulfonate]", "values": [{"measurement": "initial fluorescence build-up compared with the hydrochloride salt", "setting": "mouse skin [1]", "value": "occurred faster"}, {"measurement": "occurrence of maximum fluorescence compared with the hydrochloride salt", "setting": "mouse skin [1]", "value": "occurred faster"}]}, {"molecule": "Methyl 5-amino-4-oxopentanoate toluenesulfonate", "values": [{"measurement": "appearance / deliquescence during the test period", "setting": "[4]", "value": "did not change appearance during the test period"}, {"measurement": "water uptake as monitored by weight", "setting": "[4]", "value": "did not pick up water"}]}, {"molecule": "Cl.NCC(=O)CCC(=O)O", "note": "[5-amino-4-oxopentanoic acid hydrochloride, reference compound]", "values": [{"measurement": "onset of deliquescence", "setting": "[4]", "value": 22.5, "unit": "h"}, {"measurement": "water uptake as monitored by weight", "setting": "[4]", "value": "took up water to a considerable extent"}]}]}
